The nature of series [1]: MRI water diffusion in the brains of mice after claudin-5 siRNA. Particulars: 24 and 48 hours post injection. It counts as in vivo. Here is the method: 24 and 48 hours post-delivery of siRNA targeting claudin-5 or a non-targeting siRNA mice were anaesthetised with isofluorane, and physiologically monitored (ECG, respiration and temperature) and placed on an MRI-compatible support cradle, which has a built-in system for maintaining the animal's body temperature at 37° C. The cradle was then positioned within the MRI scanner. Accurate positioning is ensured by acquiring an initial rapid pilot image, which is then used to ensure the correct geometry is scanned in all subsequent MRI experiments. Upon insertion into the MRI scanner, high resolution anatomical images of the brain were acquired (100 μm in-plane and 500 μm through-plane spatial resolution). Water diffusion scans were subsequently undertaken. Using a standard diffusion imaging sequence such as a spin-echo EPI imaging sequence with diffusion gradients (Stejskal-Taner gradients) in order to acquire images over a large range of b-values. In this way, the effect of the technique in the vascular compartment and in the brain parenchymal tissue can be compared. All experiments were carried out on a 7 T Brüker small-bore system with 400 mT/m maximum gradient strength. Image processing and calculation of ADCs was carried out using IDL.

Another series relates to BBB. Nature of the series: Assessment of BBB integrity by perfusion of biotinylated tracer EZ-Link Sulfo-NHS-Biotin (443 Da). It counts as in vivo, C57/Bl6 mice. As for the experimental part:
Following RNAi-mediated ablation of transcripts encoding claudin-5, a tracer molecule was used to determine the extent to which the TJ's of the BBB had been affected. The biotinylated reagent EZ-Link™ Sulfo-NHS-Biotin (Pierce) (1 ml/g body weight of 2 mg/ml EZ-Link™ Sulfo-NHS-Biotin, 443 Da) was perfused for 5 minutes through the left ventricle of mice 24, 48, 72 hours and 1 week post-hydrodynamic delivery of claudin-5 siRNA. Following perfusion with the tracer molecule, the whole brain was dissected and placed in 4% PFA pH 7.4 overnight at 4° C. and subsequently washed 4×15 mins with PBS. Following cryoprotection with sucrose, frozen sections were cut on a cryostat at −20° C. and incubated with streptavidin conjugated to the fluorescent probe FITC. This allowed for the assessment of leakage of the biotinylated reagent of molecular weight 443 Da from the microvessels of the brain. All sections were counterstained with 4′,6-diamidine-2-phenylindole-dihydrochloride (DAPI; Sigma Aldrich, Ireland) for 30 seconds at a dilution of 1:5000 of a stock 1 mg/ml solution, and sections were visualized using an Olympus FluoView™ FV1000 Confocal microscope.

A further series has as its system Tie-2. The experiment in a line: Tie-2 expression following suppression of claudin-5 (Western blot). The format is in vivo, C57/Bl6 mice. The settings on record: any time point post delivery of claudin-5 siRNA. A general note: Immunoblotting shows a protein as a band on a membrane.
The nature of series [2]: MRI blood flow/volume (mean transit time, capillary transit time) in brain after claudin-5 siRNA. It counts as in vivo, mice. Particulars: 24 and 48 hours post-high volume tail vein injection; up to 8 animals per group. As for the experimental part:
48 hours post-delivery of siRNA targeting claudin-5 or a non-targeting siRNA, a solution containing Gd-DTPA injected to the claudin-5 suppressed mice. Gd-DTPA was injected in the tail vein to assess whether Gd-TPA would permeate across the BBB. Following injection of siRNA and using appropriate controls, BBB integrity to a molecule of 742 Daltons (Gd-DTPA) was assessed via MRI, using a dedicated small rodent Bruker BioSpec 70/30 (i.e. 7 T, 30 cm bore) with an actively shielded USR Magnet. Mice were anaesthetised with isofluorane, and physiologically monitored (ECG, respiration and temperature) and placed on an MRI-compatible support cradle, which has a built-in system for maintaining the animal's body temperature at 37° C. The cradle was then positioned within the MRI scanner. Accurate positioning is ensured by acquiring an initial rapid pilot image, which is then used to ensure the correct geometry is scanned in all subsequent MRI experiments. […] Statistical analysis of all densitometric results of combined regions of the Cerebellum, Hippocampus and Cortex was performed using ANOVA, with significance represented by a P value of ≦0.05, and results are presented both graphically and in a quantitative image depicting the rate of Gd-DTPA deposition within the brain. […]
This is calculated from the first moment or mean of the curve. […]

The test system of the next series is claudin-5. Nature of the series: Immunohistochemical analysis of claudin-5 expression and localisation in brain microvessels. The format is in vivo, C57/Bl6 mice. Here is the method:
Rapid high pressure, high volume tail vein injections were carried out (Kiang et al., 2005). Wild type C57/Bl6 mice of weight 20-30 g were individually restrained inside a 60-ml volume plastic tube. The protruding tail was warmed for 5 minutes prior to injection under a 60-W lamp and the tail vein clearly visualized by illumination from below. 20 micrograms of targeting siRNA, or non-targeting siRNA made up with PBS to a volume in mls of 10% of the body weight in grams or PBS alone, was injected into the tail vein at a rate of 1 ml/sec using a 26-gauge (26 G 3/8) needle. After 24, 48, 72 hours and 1 week, protein was isolated from total brain tissue by crushing brains to a fine powder in liquid N2 and subsequently using lysis buffer containing 62.5 mM Tris, 2% SDS, 10 mM Dithiothreitol, 10 μl protease inhibitor cocktail/100 ml (Sigma Aldrich, Ireland). The homogenate was centrifuged at 10,000 g for 20 mins @4° C., and the supernatant was removed for claudin-5 analysis.
Brain cryosections were blocked with 5% Normal Goat Serum (NGS) in PBS for 20 mins at room temperature. Primary antibody (Rabbit anti-Claudin-5, Zymed, California) was incubated on sections overnight at 4° C. […] A secondary rabbit IgG-Cy3 antibody was incubated with the sections at 37° C. for 2 hours followed by 3 washes with PBS. All sections were counterstained with DAPI for 30 seconds at a dilution of 1:5000 of a stock 1 mg/ml solution. Analysis of stained sections was performed with an Olympus FluoView™ FV1000 Confocal microscope.

Entries after “also recorded” stand apart in the source; their conditions may differ.

On to “claudin-5 siRNA: siRNA, sense CGUUGGAAAUUCUGGGUCUUU (SEQ ID NO: 1), antisense AGACCCAGAAUUUCCAACGUU (SEQ ID NO: 2) (listed as RNA, chemistry not given here)”, for which the “rate of water diffusion in the brain, MRI” value in series [1] is “no changes in diffusion”; in series [1] (listed as siRNA targeting claudin-5), “no change in the rate of water diffusion”. Also, the “BBB permeability to EZ-Link Sulfo-NHS-Biotin (443 Da)” value in the series with BBB (1 week post-injection) is “no evidence for BBB compromise; also recorded: failed to deposit in the parenchyma; also recorded: did not allow for the passage; also recorded: no longer crossed the BBB”; in the series on BBB (1 week post-injection, listed as siRNA targeting claudin-5), “did not deposit in the parenchyma”; in the series on BBB (24 hours post-injection, perfusion 5 minutes, listed as siRNA targeting claudin-5), “diffuse and outside of the microvessels; also recorded: increase in permeability; also recorded: infiltration of the molecule into the parenchyma of the brain”; with BBB (48 hours post-injection), “abundant in the brain parenchyma”; with BBB (48 hours post-injection, listed as siRNA targeting claudin-5), “very distinct; also recorded: detected in abundance”; with BBB (72 hours post-delivery), “permeability was still evident; also recorded: still evidenced”. Also, the “BBB permeability to EZ-Link Sulfo-NHS-Biotin (443 Da)” value in the series with BBB (72 hours post-delivery, listed as siRNA targeting claudin-5) is recorded as “significant compromise in barrier function; also recorded: crossed the BBB”. In addition, the “Tie-2 (140 kDa) expression, Western blot” value in the series on Tie-2 is reported as “no distinct changes”. Further, the “blood flow / blood volume in major brain vessels and capillaries (MTT, CTT), MRI” value in series [2] was “no significant differences in blood flow; also recorded: not observing any difference in blood flow or blood volume”. Also, the “claudin-5 staining pattern in brain microvessels, immunohistochemistry” value in the series with claudin-5 (24 hours post delivery) was “decreased and non-continuous; also recorded: less intense”; in the series on claudin-5 (48 hours post injection) it was “striking decrease in expression; also recorded: marked decrease; also recorded: dramatically reduced”; in the series on claudin-5 (48 hours post injection, listed as siRNA targeting claudin-5), “highly fragmented and discontinuous”; with claudin-5 (72 hours post-injection), “evident, yet non-continuous; also recorded: evident, yet not as intense as the control groups; also recorded: still attenuated”.

(Values after patent US9540649B2, “Method for opening tight junctions” (The Provost, Fellows and Scholars of the College of the …, priority 2007, dated 2017).)
